Here are results for 18 compounds from ChEMBL document CHEMBL2396585, “Synthesis and biological evaluation of sorafenib- and regorafenib-like sEH inhibitors” (Bioorg Med Chem Lett, 2013).

Calls of active or inactive are those of the source. The rule behind the calls is not given here. Bounds are passed on as bounds.

Test [1] deals with Serine/threonine-protein kinase B-raf (Homo sapiens, UniProt P15056, V600E). The experiment in a line: Inhibition of B-RAF V600E mutant (unknown origin) using MEK1 as substrate.
A further test relates to Huh-7. The experiment in a line: Cytotoxicity against human HuH7 cells by MTT assay. On the technique in general: Tetrazolium assays rely on reduction of a dye to a coloured formazan, in cell work by metabolically active cells.
The next test concerns HepG2. The test can be described thus: Cytotoxicity against human HepG2 cells by MTT assay.
The test system of test [2] is HUVEC. The experiment in a line: cells. Particulars: Homo sapiens, 72 h.
Description: (§1) Antiproliferative activity against HUVEC after 72 hrs by MTT assay
In test [3] the target is Vascular endothelial growth factor receptor 2 (Homo sapiens) (UniProt P35968). The test can be described thus: Inhibition of VEGFR-2 (unknown origin) at 10 uM after 1 hr by luminescence assay.
Test [4] has as its target RAF proto-oncogene serine/threonine-protein kinase (Homo sapiens, UniProt P04049). The experiment in a line: Inhibition of full length recombinant c-RAF (unknown origin) using MEK1 as substrate after 1 hr by luminescence assay.
Test [5] addresses Platelet-derived growth factor receptor beta (Homo sapiens) (UniProt P09619). The experiment in a line: Inhibition of recombinant PDGFRbeta (unknown origin) at 10 uM.
Test [6] addresses Tyrosine-protein kinase ABL2 (Homo sapiens) (UniProt P42684). The test can be described thus: Inhibition of recombinant ABL-2 (unknown origin) at 10 uM.
Test [7] has as its target Vascular endothelial growth factor receptor 1 (Homo sapiens) (UniProt P17948). The experiment in a line: Inhibition of recombinant FLT-1 (unknown origin) at 10 uM.
The target of test [8] is T1, 3-phosphoinositide-dependent protein kinase 1 (Homo sapiens) (UniProt O15530).
T1 sequence (whole entry): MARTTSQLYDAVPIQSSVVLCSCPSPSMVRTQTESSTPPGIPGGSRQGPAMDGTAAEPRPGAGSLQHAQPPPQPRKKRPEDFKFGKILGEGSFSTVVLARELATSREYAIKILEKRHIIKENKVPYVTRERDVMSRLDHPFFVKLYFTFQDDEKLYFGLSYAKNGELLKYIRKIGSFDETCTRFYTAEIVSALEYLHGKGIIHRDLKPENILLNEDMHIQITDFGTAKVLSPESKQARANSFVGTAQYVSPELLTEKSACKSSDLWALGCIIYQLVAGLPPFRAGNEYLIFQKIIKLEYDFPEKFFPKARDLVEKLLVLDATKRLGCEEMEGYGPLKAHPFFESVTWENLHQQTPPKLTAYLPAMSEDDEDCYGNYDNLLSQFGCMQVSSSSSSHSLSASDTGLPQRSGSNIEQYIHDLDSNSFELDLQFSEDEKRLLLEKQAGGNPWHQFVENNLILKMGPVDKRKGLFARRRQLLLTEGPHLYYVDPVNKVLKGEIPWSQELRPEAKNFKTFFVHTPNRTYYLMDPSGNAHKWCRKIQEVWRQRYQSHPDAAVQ
The experiment in a line: Inhibition of recombinant PDPK-1 (unknown origin) at 10 uM.

The target of test [9] is Receptor-type tyrosine-protein kinase FLT3 (Homo sapiens) (UniProt P36888). The experiment in a line: Inhibition of recombinant FLT-3 (unknown origin) at 10 uM.
Test [10] addresses Platelet-derived growth factor receptor alpha (Homo sapiens) (UniProt P16234). The test can be described thus: Inhibition of recombinant PDGFRalpha (unknown origin) at 10 uM.
The target of test [11] is Vascular endothelial growth factor receptor 2 (Homo sapiens) (UniProt P35968). The test can be described thus: Inhibition of recombinant KDR (unknown origin) at 10 uM.
The target of test [12] is Fibroblast growth factor receptor 2 (Homo sapiens) (UniProt P21802). The experiment in a line: Inhibition of recombinant FGFR-2 (unknown origin) at 10 uM.
Test [13] concerns the target Glycogen synthase kinase-3 alpha (Homo sapiens) (UniProt P49840). The experiment in a line: Inhibition of recombinant GSK3alpha (unknown origin) at 10 uM.
In test [14] the target is T2, Bifunctional epoxide hydrolase 2 (Homo sapiens, UniProt P34913).
T2 sequence (P34913 whole entry): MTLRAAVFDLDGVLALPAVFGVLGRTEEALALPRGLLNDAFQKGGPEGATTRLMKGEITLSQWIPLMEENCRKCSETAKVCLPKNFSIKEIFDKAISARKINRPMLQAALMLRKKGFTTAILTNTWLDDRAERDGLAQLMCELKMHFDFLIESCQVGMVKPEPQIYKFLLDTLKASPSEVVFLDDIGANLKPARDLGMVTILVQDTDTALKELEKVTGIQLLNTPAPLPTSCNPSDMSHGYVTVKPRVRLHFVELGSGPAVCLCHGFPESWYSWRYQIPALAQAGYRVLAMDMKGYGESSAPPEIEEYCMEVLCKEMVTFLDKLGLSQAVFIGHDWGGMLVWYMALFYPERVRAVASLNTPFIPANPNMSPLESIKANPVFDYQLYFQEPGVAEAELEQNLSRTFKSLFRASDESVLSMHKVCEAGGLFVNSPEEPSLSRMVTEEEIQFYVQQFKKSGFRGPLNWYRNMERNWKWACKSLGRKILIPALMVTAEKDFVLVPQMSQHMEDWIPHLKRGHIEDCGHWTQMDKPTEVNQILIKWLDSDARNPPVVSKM
The experiment in a line: Inhibition of human recombinant soluble epoxide hydrolase assessed as cyano(6-methoxy-naphthalen-2-yl)methyl trans-[(3-phenyloxyran-2-yl)methyl] carbonate conversion to 6-methoxy-2-naphthaldehyde preincubated for 5 mins prior to substrate addition by fluorescence assay.

Test [15] concerns the target Hepatocyte growth factor receptor (Homo sapiens) (UniProt P08581). Particulars: at 10 µM.
Description: Inhibition of recombinant MET (unknown origin) at 10 uM
Test [16] concerns HUVEC.
Description: as §1

Sequence of Vascular endothelial growth factor receptor 2 (Homo sapiens) (P35968 whole entry): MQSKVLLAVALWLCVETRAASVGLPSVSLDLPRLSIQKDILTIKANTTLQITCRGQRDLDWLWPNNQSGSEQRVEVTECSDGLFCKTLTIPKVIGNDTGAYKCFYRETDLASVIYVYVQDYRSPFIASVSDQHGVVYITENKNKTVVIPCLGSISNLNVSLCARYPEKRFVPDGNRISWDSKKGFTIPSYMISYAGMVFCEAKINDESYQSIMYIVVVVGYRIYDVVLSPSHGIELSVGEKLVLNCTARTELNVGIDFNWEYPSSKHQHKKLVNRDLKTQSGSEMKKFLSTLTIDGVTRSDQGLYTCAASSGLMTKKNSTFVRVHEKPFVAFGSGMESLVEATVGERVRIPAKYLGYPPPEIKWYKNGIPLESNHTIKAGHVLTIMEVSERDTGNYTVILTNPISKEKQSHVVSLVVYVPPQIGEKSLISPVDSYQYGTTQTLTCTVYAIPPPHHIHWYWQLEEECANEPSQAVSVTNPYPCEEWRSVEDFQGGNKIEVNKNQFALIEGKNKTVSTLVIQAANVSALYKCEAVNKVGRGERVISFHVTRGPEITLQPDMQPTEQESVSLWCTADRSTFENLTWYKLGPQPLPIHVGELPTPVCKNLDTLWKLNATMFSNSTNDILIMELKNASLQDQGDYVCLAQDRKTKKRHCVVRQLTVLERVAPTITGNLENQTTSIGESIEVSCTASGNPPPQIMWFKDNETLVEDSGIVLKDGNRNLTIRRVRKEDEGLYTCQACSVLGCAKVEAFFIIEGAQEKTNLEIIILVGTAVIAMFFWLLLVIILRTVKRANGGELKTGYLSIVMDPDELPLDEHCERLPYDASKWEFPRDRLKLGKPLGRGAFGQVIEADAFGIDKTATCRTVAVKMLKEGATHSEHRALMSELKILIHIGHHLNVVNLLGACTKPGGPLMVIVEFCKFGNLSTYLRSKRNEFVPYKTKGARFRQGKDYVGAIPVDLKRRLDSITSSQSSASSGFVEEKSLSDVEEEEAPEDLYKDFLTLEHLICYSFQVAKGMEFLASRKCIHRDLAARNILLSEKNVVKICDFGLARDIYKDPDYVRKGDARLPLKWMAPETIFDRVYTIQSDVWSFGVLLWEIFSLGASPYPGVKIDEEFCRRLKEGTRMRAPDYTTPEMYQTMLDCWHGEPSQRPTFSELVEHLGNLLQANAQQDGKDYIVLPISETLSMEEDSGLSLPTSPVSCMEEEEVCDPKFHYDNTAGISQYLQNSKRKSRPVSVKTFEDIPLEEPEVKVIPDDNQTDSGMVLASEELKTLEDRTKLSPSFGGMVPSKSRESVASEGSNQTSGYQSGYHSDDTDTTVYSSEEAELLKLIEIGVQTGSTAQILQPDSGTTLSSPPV
Sequence of RAF proto-oncogene serine/threonine-protein kinase (P04049 whole entry): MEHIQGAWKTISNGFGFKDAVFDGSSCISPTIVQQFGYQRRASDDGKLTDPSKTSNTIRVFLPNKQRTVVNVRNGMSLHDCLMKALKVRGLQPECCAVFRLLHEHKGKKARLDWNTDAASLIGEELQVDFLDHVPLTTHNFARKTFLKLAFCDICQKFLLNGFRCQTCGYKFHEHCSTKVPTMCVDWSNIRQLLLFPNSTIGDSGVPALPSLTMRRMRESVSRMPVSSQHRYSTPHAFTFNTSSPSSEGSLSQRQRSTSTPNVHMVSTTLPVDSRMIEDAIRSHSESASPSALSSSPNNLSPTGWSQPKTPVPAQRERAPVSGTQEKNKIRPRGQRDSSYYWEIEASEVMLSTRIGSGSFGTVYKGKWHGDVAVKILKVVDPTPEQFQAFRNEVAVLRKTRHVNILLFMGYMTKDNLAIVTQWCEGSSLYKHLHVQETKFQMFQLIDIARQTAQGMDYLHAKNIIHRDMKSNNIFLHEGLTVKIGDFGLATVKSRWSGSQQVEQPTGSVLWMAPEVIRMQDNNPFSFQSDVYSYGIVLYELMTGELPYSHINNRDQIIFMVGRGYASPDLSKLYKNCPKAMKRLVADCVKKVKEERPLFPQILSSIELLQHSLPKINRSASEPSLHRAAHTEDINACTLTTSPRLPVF
Sequence of Vascular endothelial growth factor receptor 1 (Homo sapiens) (P17948 whole entry): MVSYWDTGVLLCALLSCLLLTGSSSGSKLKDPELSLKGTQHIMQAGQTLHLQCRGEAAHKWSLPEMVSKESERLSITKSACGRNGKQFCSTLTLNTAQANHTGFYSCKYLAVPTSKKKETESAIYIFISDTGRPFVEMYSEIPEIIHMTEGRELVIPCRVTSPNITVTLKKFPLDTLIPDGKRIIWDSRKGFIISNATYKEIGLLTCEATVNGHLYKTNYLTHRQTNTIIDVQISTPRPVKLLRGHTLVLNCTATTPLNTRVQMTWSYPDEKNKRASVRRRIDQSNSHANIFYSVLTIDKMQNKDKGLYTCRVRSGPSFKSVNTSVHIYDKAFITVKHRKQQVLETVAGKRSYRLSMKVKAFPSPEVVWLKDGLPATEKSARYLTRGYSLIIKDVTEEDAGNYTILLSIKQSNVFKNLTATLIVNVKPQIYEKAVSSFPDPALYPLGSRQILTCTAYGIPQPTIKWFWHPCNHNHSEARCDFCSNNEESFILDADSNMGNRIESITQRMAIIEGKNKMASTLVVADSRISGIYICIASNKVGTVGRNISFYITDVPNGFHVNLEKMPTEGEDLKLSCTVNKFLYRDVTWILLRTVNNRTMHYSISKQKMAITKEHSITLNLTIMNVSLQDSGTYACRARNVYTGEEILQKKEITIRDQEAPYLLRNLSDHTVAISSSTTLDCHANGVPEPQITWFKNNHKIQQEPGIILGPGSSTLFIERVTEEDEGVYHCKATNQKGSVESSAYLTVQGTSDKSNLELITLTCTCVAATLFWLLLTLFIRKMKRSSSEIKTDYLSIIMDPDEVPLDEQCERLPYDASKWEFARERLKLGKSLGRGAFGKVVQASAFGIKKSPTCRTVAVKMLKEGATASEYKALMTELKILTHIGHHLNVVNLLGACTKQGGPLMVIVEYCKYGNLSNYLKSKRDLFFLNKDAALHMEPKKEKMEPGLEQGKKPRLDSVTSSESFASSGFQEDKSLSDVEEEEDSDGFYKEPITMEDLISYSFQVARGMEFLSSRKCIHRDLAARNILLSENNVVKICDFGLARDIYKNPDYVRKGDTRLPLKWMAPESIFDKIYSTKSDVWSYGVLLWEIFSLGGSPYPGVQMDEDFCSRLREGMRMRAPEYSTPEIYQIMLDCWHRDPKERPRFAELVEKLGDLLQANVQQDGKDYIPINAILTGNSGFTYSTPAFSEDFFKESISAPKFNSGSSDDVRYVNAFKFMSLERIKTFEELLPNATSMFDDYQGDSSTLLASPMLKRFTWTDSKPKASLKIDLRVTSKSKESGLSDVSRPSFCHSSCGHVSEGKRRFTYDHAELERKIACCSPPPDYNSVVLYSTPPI
Sequence of Receptor-type tyrosine-protein kinase FLT3 (Homo sapiens) (P36888 whole entry): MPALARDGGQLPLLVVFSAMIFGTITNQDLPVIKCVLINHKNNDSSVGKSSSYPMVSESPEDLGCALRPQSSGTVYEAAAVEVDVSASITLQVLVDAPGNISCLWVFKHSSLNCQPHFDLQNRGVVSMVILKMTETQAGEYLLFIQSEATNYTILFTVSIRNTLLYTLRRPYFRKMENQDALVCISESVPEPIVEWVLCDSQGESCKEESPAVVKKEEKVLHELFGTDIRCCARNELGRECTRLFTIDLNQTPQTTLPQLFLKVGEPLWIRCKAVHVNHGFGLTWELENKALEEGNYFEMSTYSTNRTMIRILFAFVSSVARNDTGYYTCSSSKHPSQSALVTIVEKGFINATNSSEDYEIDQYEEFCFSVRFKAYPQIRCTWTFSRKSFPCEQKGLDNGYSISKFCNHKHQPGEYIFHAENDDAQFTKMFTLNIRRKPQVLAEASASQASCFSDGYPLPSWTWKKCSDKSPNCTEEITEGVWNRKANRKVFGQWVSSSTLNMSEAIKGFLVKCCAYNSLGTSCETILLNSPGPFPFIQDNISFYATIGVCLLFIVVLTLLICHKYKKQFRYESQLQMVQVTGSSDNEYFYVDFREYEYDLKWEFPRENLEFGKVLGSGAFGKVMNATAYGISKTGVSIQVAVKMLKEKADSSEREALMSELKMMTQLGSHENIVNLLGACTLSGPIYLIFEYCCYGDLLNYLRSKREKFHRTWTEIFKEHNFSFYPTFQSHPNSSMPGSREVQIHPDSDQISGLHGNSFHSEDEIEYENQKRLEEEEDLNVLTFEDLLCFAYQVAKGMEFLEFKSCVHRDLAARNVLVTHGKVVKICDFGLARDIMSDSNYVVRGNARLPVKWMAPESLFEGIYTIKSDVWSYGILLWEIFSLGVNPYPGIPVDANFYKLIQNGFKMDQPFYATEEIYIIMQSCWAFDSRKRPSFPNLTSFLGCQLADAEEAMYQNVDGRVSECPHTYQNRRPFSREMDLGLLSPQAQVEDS
Sequence of Serine/threonine-protein kinase B-raf (P15056 2-766 V600E limits assumed): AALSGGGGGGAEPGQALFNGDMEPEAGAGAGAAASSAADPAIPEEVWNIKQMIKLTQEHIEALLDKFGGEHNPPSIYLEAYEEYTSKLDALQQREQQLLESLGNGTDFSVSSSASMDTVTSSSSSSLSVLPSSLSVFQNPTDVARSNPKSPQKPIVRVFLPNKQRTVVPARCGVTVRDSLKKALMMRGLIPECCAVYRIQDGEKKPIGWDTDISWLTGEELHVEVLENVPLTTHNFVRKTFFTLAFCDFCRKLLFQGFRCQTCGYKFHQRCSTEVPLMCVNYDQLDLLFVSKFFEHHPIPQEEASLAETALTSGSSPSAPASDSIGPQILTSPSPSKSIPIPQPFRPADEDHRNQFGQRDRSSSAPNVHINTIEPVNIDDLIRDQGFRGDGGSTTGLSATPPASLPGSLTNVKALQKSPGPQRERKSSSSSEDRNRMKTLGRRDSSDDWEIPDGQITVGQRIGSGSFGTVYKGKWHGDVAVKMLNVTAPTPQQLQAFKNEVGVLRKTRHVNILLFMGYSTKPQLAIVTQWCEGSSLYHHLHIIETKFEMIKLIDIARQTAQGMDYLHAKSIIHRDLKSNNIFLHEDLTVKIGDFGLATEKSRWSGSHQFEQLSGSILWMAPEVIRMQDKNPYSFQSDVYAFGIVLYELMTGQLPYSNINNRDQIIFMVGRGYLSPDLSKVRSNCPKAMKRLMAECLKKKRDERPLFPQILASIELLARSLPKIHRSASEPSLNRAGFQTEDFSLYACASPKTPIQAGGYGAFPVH

One may read the IC50 as the concentration that inhibits the measured activity by half. As usually defined, the GI50 is the concentration at which growth is held to half of that of the control. Regarding `CNC(=O)c1cc(Oc2ccc(NC(=O)Nc3ccc(OC(F)(F)F)cc3)cc2)ccn1`, the IC50 in [1] is more than 5 µM. Besides, the GI50 in the test on Huh-7 (Homo sapiens, Huh-7) is 7 µM; in the test with HepG2 (Homo sapiens, HepG2), 7 µM; with HUVEC [2] it was more than 25 µM. Besides, in [3], the inhibition result is “Active”.

For the compound `CNC(=O)c1ccc(O[C@H]2CC[C@H](NC(=O)NC34CC5CC(CC(C5)C3)C4)CC2)cc1`, the GI50 was 5.5 µM in the test on Huh-7 (Homo sapiens, Huh-7); 7 µM in the test with HepG2 (Homo sapiens, HepG2); more than 25 µM in the test on HUVEC [2]. The IC50 in test [4] was more than 10 µM.

Turning to `O=C(NC12CC3CC(CC(C3)C1)C2)N[C@H]1CC[C@H](Oc2ccc(C(=O)O)cc2)CC1`, the inhibition entry in test [5], in test [6], in test [7], in [8], in [9] and in [10] was “inactive” each time. The inhibition entry in test [11], in [12] and in test [13] was “inactive” in each case.

In the case of `CNC(=O)c1cc(O[C@H]2CC[C@@H](NC(=O)Nc3ccc(Cl)c(C(F)(F)F)c3)CC2)ccn1`, the GI50 in the test on Huh-7 (Homo sapiens, Huh-7) was 8.5 µM; in the test on HepG2 (Homo sapiens, HepG2), 7.5 µM; in the test on HUVEC [2], 10 µM.

On to `CNC(=O)c1ccc(O[C@H]2CC[C@H](NC(=O)Nc3ccc(Cl)c(C(F)(F)F)c3)CC2)cc1`, for which the GI50 is 16 µM in the test on Huh-7 (Homo sapiens, Huh-7); more than 25 µM in the test on HepG2 (Homo sapiens, HepG2); more than 25 µM in the test with HUVEC [2].

Consider `O=C(Nc1ccc(Cl)c(C(F)(F)F)c1)N[C@H]1CC[C@H](Oc2cccc(C(=O)O)c2)CC1`, for which the GI50 in the test on Huh-7 (Homo sapiens, Huh-7) is more than 25 µM; with HepG2 (Homo sapiens, HepG2) it was more than 25 µM; with HUVEC [2] it was 10.5 µM. The figures for the IC50 in [4] and in test [14] were more than 10 µM and 0.0086 µM, respectively.

With `CNC(=O)c1cc(O[C@H]2CC[C@H](NC(=O)Nc3ccc(OC(F)(F)F)cc3)CC2)ccn1`, the concentration for 50% growth inhibition (GI50) in the test on Huh-7 (Homo sapiens, Huh-7) is 7 µM; in the test on HepG2 (Homo sapiens, HepG2), 7 µM; in the test on HUVEC [2], more than 25 µM. The IC50 in test [4] is more than 10 µM.

Take `CNC(=O)c1cccc(O[C@H]2CC[C@H](NC(=O)Nc3ccc(Cl)c(C(F)(F)F)c3)CC2)c1`: the concentration for 50% growth inhibition (GI50) was 7.5 µM with Huh-7 (Homo sapiens, Huh-7); 6.5 µM in the test on HepG2 (Homo sapiens, HepG2); 11 µM in the test on HUVEC [2]. In addition, the IC50 in test [4] turned out to be 0.293 µM; in [14], 0.001 µM.

Turning to `CNC(=O)c1cc(Oc2ccc(NC(=O)Nc3ccc(Cl)c(C(F)(F)F)c3)c(F)c2)ccn1` [REGORAFENIB], the IC50 in [14] stood at 0.0005 µM.

For the compound `O=C(Nc1ccc(Cl)c(C(F)(F)F)c1)N[C@H]1CC[C@H](Oc2ccc(C(=O)O)cc2)CC1`, the GI50 was more than 25 µM in the test with Huh-7 (Homo sapiens, Huh-7); more than 25 µM with HepG2 (Homo sapiens, HepG2); 25 µM in the test with HUVEC [2]. Further, the 50% inhibitory concentration (IC50) in [4] came to 4.3 µM; in test [14] it was 0.0005 µM.

As for `O=C(Nc1ccc(OC(F)(F)F)cc1)N[C@H]1CC[C@H](Oc2ccc(C(=O)O)cc2)CC1`, the inhibition entry in test [15], in test [5], in test [6], in test [7], in test [8] and in [9] was “inactive” in each case. In addition, the inhibition result in test [10], in test [11], in [12] and in test [13] was “inactive” throughout. Further, the figures for the GI50 in the test on Huh-7, in the test on HepG2 and in the test on HUVEC [16] were 20 µM, 15 µM and more than 25 µM, respectively.

As to `CS(=O)(=O)N1CCC(NC(=O)Nc2ccc(OC(F)(F)F)cc2)CC1`, the GI50 in the test on Huh-7 (Homo sapiens, Huh-7) was more than 25 µM; in the test on HepG2 (Homo sapiens, HepG2), more than 25 µM; in the test on HUVEC [2], more than 25 µM. Moreover, the IC50 in test [4] was more than 10 µM.

Regarding `CNC(=O)c1cc(O[C@H]2CC[C@H](NC(=O)Nc3ccc(Cl)c(C(F)(F)F)c3)CC2)ccn1`, the GI50 with Huh-7 (Homo sapiens, Huh-7) amounted to 8 µM; with HepG2 (Homo sapiens, HepG2), 7 µM; with HUVEC [2] it was 11 µM. In addition, the inhibition entry in [3] is “Active”.

For the compound `CNC(=O)c1ccc(O[C@H]2CC[C@H](NC(=O)Nc3ccc(OC(F)(F)F)cc3)CC2)cc1`, the 50% growth inhibitory concentration (GI50) was 5.5 µM in the test with Huh-7 (Homo sapiens, Huh-7); 7 µM in the test with HepG2 (Homo sapiens, HepG2); more than 25 µM in the test on HUVEC [2]. Further, in test [4], the IC50 is more than 10 µM.

On to `CN(C)C(=O)c1cc(O[C@H]2CC[C@H](NC(=O)Nc3ccc(Cl)c(C(F)(F)F)c3)CC2)ccn1`, for which the GI50 stood at 8 µM with Huh-7 (Homo sapiens, Huh-7) and 10 µM in the test on HepG2 (Homo sapiens, HepG2). The IC50 in [4] is more than 10 µM; in test [14] it was 0.0005 µM.

Regarding `CNC(=O)c1cc(Oc2ccc(NC(=O)NC34CC5CC(CC(C5)C3)C4)cc2)ccn1`, the IC50 was more than 5 µM in [1] and 1 µM in [4]. In addition, the GI50 in the test with Huh-7 (Homo sapiens, Huh-7) worked out at 7 µM; in the test with HepG2 (Homo sapiens, HepG2) it was 10 µM; with HUVEC [2], 25 µM. Moreover, the inhibition result in [3] is “Active”.

Regarding `CCN(CC)CCNC(=O)c1c(C)[nH]c(/C=C2\C(=O)Nc3ccc(F)cc32)c1C` [SUNITINIB], the IC50 in [14] was more than 10 µM.

`CNC(=O)c1ccc(O[C@H]2CC[C@H](NC(=O)Nc3ccc(Cl)c(C(F)(F)F)c3)CC2)cn1`: the GI50 with Huh-7 (Homo sapiens, Huh-7) is 8 µM; in the test with HepG2 (Homo sapiens, HepG2), 7 µM; in the test with HUVEC [2], 10.5 µM. In addition, in test [3], the inhibition entry is “Active”.
